Laboratory results from patent publication US6737383B1, “Herbicidal oxadiazolidines” (priority 1999, dated 2004).

How the values were obtained:
smallflower flatsedge = assay: Test B flood test smallflower flatsedge; type: in vivo, Cyperus difformis
Summary of the method: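 Each value is a visual injury score relative to controls, with 10 meaning complete control and 0 no effect. Evaluation took place twelve to sixteen days after the 2-leaf-stage plants were treated and kept in the greenhouse.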

wheat = assay: Test B pre/postemergence wheat; type: in vivo, Triticum aestivum
Summary of the method: (§1)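 Test chemicals in a non-phytotoxic solvent mixture with surfactant were sprayed preemergence onto planted seeds and postemergence onto plants 2 to 18 cm tall (1- to 4-leaf stage). After twelve to sixteen days in a greenhouse, injury was visually rated against untreated controls from 0 (no effect) to 10 (complete control).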

soybean = assay: Test B pre/postemergence soybean; type: in vivo, Glycine max
Summary of the method: as §1

wild oat = assay: Test B pre/postemergence wild oat; type: in vivo, Avena fatua
Summary of the method: as §1

crabgrass = assay: Test B pre/postemergence crabgrass; type: in vivo, Digitaria sanguinalis
Summary of the method: as §1

[1] = Pre-emergence, Rate 1000 g/ha, scale 0 to 10 (0 no effect, 10 complete control)
[2] = Rate 125 g/ha, Pre-emergence, flood test species, scale 0 to 10 where 0 is no effect and 10 is complete control
[3] = Rate 250 g/ha, Pre-emergence, flood-test species, scale 0 to 10, 0 is no effect, 10 is complete control
[4] = Rate 500 g/ha, Pre-emergence, flood test species, scale 0 to 10 (0 no effect, 10 complete control)
[5] = Preemergence, Rate 62 g/ha, scale of 0 to 10 where 0 is no effect and 10 is complete control
[6] = Preemergence, Rate 250 g/ha, scale of 0 to 10 where 0 is no effect and 10 is complete control
[7] = Preemergence, Rate 500 g/ha, scale of 0 to 10 where 0 is no effect and 10 is complete control
[8] = Rate 62 g/ha, Postemergence, scale 0 to 10 (0 no effect, 10 complete control)
[9] = Rate 125 g/ha, Postemergence, scale of 0 to 10 where 0 is no effect and 10 is complete control
[10] = Rate 250 g/ha, Postemergence, scale of 0 to 10 where 0 is no effect and 10 is complete control
[11] = Rate 62 g/ha, Postemergence, scale of 0 to 10 where 0 is no effect and 10 is complete control
[12] = Rate 125 g/ha, Postemergence, scale 0 to 10
[13] = Rate 125 g/ha, Preemergence, scale of 0 to 10 where 0 is no effect and 10 is complete control
[14] = Rate 500 g/ha, Postemergence, scale 0 to 10, 0 no effect, 10 complete control
[15] = Postemergence, Rate 62 g/ha, scale 0 to 10, 0 is no effect, 10 is complete control
[16] = Postemergence, Rate 250 g/ha, scale 0 to 10, 0 no effect, 10 complete control
[17] = Preemergence, Rate 62 g/ha, scale 0 to 10 (0 no effect, 10 complete control)
[18] = Preemergence, Rate 125 g/ha, scale 0 to 10 (0 no effect, 10 complete control)
[19] = Preemergence, Rate 500 g/ha, scale 0 (no effect) to 10 (complete control)
[20] = Rate 125 g/ha, Postemergence, scale 0 to 10, 0 no effect, 10 complete control

CCN(C(=O)n1oc(=O)n(C2CCCCC2)c1=O)C1CCCCC1 [Compound 308]
S. Flatsedge plant response rating (smallflower flatsedge; [1]): 0
S. Flatsedge plant response rating (smallflower flatsedge; [2]): 0
S. Flatsedge plant response rating (smallflower flatsedge; [3]): 0
S. Flatsedge plant response rating (smallflower flatsedge; [4]): 0
Wheat plant response rating (wheat; [5]): 0
Wheat plant response rating (0 to 10 scale) (wheat; Preemergence, Rate 125 g/ha): 0
Wheat plant response rating (wheat; [6]): 0
Wheat plant response rating (wheat; [7]): 0
Wheat plant response rating (wheat; [8]): 0
Wheat plant response rating (wheat; [9]): 0
Plant response rating, Wheat (wheat; [10]): 0
Soybean plant response rating (soybean; [5]): 0
Soybean plant response rating (0 to 10 scale) (soybean; Preemergence, Rate 125 g/ha): 0
Soybean plant response rating (soybean; [6]): 0
Soybean plant response rating (soybean; [7]): 0
Soybean plant response rating (soybean; [8]): 1
Soybean plant response rating (soybean; [9]): 1
Plant response rating, Soybean (soybean; [10]): 1
Wild oats plant response rating (wild oat; [5]): 0
Wild oats plant response rating (0 to 10 scale) (wild oat; Preemergence, Rate 125 g/ha): 0
Wild oats plant response rating (wild oat; [6]): 0
Wild oats plant response rating (wild oat; [7]): 0
Wild oats plant response rating (wild oat; [8]): 0
Wild oats plant response rating (wild oat; [9]): 0
Plant response rating, Wild oats (wild oat; [10]): 0
Crabgrass plant response rating (crabgrass; [5]): 0
Crabgrass plant response rating (0 to 10 scale) (crabgrass; Preemergence, Rate 125 g/ha): 0
Crabgrass plant response rating (crabgrass; [6]): 0
Crabgrass plant response rating (crabgrass; [7]): 0
Crabgrass plant response rating (crabgrass; [8]): 0
Crabgrass plant response rating (crabgrass; [9]): 0
Plant response rating, Crabgrass (crabgrass; [10]): 0

COc1cc(C)cc(C)c1-n1c(=O)on(C(=O)N(c2ccc(F)cc2F)C(C)C)c1=O [Compound 223]
S. Flatsedge plant response rating (smallflower flatsedge; Rate 62 g/ha, headed Pre-emergence (flood test species), scale 0 to 10 (0 no effect, 10 complete control)): 0
S. Flatsedge plant response rating (smallflower flatsedge; [2]): 0
S. Flatsedge plant response rating (smallflower flatsedge; [3]): 0
S. Flatsedge plant response rating (smallflower flatsedge; [4]): 0
Wheat plant response rating (wheat; [5]): 0
Wheat plant response rating (wheat; [6]): 0
Plant response rating, Wheat (wheat; [7]): 0
Wheat plant response rating (wheat; [11]): 0
Wheat plant response rating (wheat; [12]): 0
Wheat plant response rating (wheat; [13]): 0
Plant response rating (0 to 10; 0 is no effect, 10 is complete control), Wheat (wheat; Rate 250 g/ha, Postemergence): 0
Wheat plant response rating (wheat; [14]): 0
Soybean plant response rating (soybean; [5]): 0
Soybean plant response rating (soybean; [6]): 0
Plant response rating, Soybean (soybean; [7]): 0
Soybean plant response rating (soybean; [11]): 3
Soybean plant response rating (soybean; [12]): 3
Soybean plant response rating (soybean; [13]): 0
Plant response rating (0 to 10; 0 is no effect, 10 is complete control), Soybean (soybean; Rate 250 g/ha, Postemergence): 3
Soybean plant response rating (soybean; [14]): 4
Wild oats plant response rating (wild oat; [6]): 2
Plant response rating, Wild oats (wild oat; [7]): 4
Wild oats plant response rating (wild oat; [11]): 0
Wild oats plant response rating (wild oat; [12]): 0
Wild oats plant response rating (wild oat; [13]): 0
Plant response rating (0 to 10; 0 is no effect, 10 is complete control), Wild oats (wild oat; Rate 250 g/ha, Postemergence): 0
Wild oats plant response rating (wild oat; [14]): 2
Crabgrass plant response rating (crabgrass; [5]): 4
Crabgrass plant response rating (crabgrass; [6]): 7
Plant response rating, Crabgrass (crabgrass; [7]): 9
Crabgrass plant response rating (crabgrass; [11]): 0
Crabgrass plant response rating (crabgrass; [12]): 0
Crabgrass plant response rating (crabgrass; [13]): 6
Plant response rating (0 to 10; 0 is no effect, 10 is complete control), Crabgrass (crabgrass; Rate 250 g/ha, Postemergence): 1
Crabgrass plant response rating (crabgrass; [14]): 3

Cc1ccccc1Cn1c(=O)on(C(=O)N(c2ccc(F)cc2F)C(C)C)c1=O [Compound 87]
S. Flatsedge plant response rating (smallflower flatsedge; [15]): 0
S. Flatsedge plant response rating (smallflower flatsedge; [1]): 0
S. Flatsedge plant response rating (smallflower flatsedge; Rate 125 g/ha, Postemergence section (flood test species), scale 0 to 10, 0 no effect, 10 complete control): 0
S. Flatsedge plant response rating (smallflower flatsedge; Rate 250 g/ha, headed Pre-emergence (flood test species), scale 0 to 10 (0 no effect, 10 complete control)): 0
Plant response rating, S. Flatsedge (smallflower flatsedge; Rate 500 g/ha, headed Pre-emergence (flood test species), scale 0 to 10 (0 no effect, 10 complete control)): 0
S. Flatsedge plant response rating (smallflower flatsedge; Rate 2000 g/ha, Pre-emergence (as headed), scale 0 to 10): 0
S. Flatsedge plant response rating (smallflower flatsedge; flood test, listed under Postemergence, Rate 250 g/ha, scale 0 to 10, 0 no effect, 10 complete control): 0
Wheat plant response rating (wheat; [15]): 0
Wheat plant response rating (wheat; [16]): 0
Wheat plant response rating (wheat; [17]): 0
Plant response rating, Wheat (wheat; [18]): 0
Plant response rating, Wheat (wheat; [6]): 0
Wheat plant response rating (wheat; [19]): 0
Wheat plant response rating (wheat; [20]): 0
Wheat plant response rating (wheat; [14]): 2
Soybean plant response rating (soybean; [15]): 2
Soybean plant response rating (soybean; [16]): 2
Soybean plant response rating (soybean; [17]): 0
Plant response rating, Soybean (soybean; [18]): 0
Plant response rating, Soybean (soybean; [6]): 0
Soybean plant response rating (soybean; [19]): 4
Soybean plant response rating (soybean; [20]): 2
Soybean plant response rating (soybean; [14]): 5
Wild oats plant response rating (wild oat; [15]): 0
Wild oats plant response rating (wild oat; [16]): 0
Wild oats plant response rating (wild oat; [17]): 0
Plant response rating, Wild oats (wild oat; [18]): 0
Plant response rating, Wild oats (wild oat; [6]): 4
Wild oats plant response rating (wild oat; [19]): 3
Wild oats plant response rating (wild oat; [20]): 0
Wild oats plant response rating (wild oat; [14]): 3
Crabgrass plant response rating (crabgrass; [15]): 2
Crabgrass plant response rating (crabgrass; [16]): 5
Crabgrass plant response rating (crabgrass; [17]): 5
Plant response rating, Crabgrass (crabgrass; [18]): 8
Plant response rating, Crabgrass (crabgrass; [6]): 10
Crabgrass plant response rating (crabgrass; [19]): 10
Crabgrass plant response rating (crabgrass; [20]): 3
Crabgrass plant response rating (crabgrass; [14]): 9
